Among the test systems are DMS 273 small cell lung; KM20L2 colon; M19-MEL melanoma; P388 leukemia; LXFL 529 NSCLC; SNB-78 CNS; SN12K1 renal; XF 498 CNS; DLD-1 colon; P388/ADR leukemia; RXF-631 renal; MDA-N.
Common to all, as to experiment: NCI tumour cell line growth inhibition, 48 h

Several values for one entry are separate records, joined by “and”; a condition that tells them apart may be missing. Equal values may be shown once.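 Briefly, cells in 96-well plates were exposed to five compound concentrations for 48 h, and endpoints were estimated by linear interpolation. GI50 is the concentration that inhibits growth by half. TGI denotes the concentration required for complete inhibition of growth.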 Some results are limits rather than exact numbers.

Consider `Cc1c2ccncc2c(C)c2c1[nH]c1ccc(Cl)cc12`, for which the TGI with DMS 273 small cell lung was 5.75 µM; in the assay with KM20L2 colon, 9.55 µM; in the assay with M19-MEL melanoma, 7.93 µM and 8.98 µM; in the assay on P388 leukemia, 3.91 µM; in the assay with LXFL 529 NSCLC it was 14 µM; in the assay on SNB-78 CNS, 22.5 µM and 20.4 µM. Also, the TGI in the assay with SN12K1 renal was 7.81 µM; in the assay on XF 498 CNS, 9.43 µM and 2.71 µM; in the assay with DLD-1 colon, 8.14 µM and 4.89 µM; with P388/ADR leukemia, 10.2 µM. In addition, the GI50 in the assay with KM20L2 colon was 3.06 µM; in the assay on SNB-78 CNS, 3.07 µM; with XF 498 CNS, 1.41 µM; in the assay on DLD-1 colon it was 1.67 µM.

As to `C#CCOCn1cnc2ncnc(N)c21`, the TGI in the assay with DMS 273 small cell lung, with M19-MEL melanoma, with SNB-78 CNS, with XF 498 CNS and in the assay on DLD-1 colon was greater than 100 µM throughout.

In the case of `Cc1ccc(/C=N/NS(=O)(=O)c2ccccc2)c(C)c1`, the TGI with RXF-631 renal, in the assay on DMS 273 small cell lung, with KM20L2 colon, with M19-MEL melanoma, with LXFL 529 NSCLC and with SNB-78 CNS was greater than 100 µM each time. The TGI in the assay on XF 498 CNS and in the assay on DLD-1 colon was greater than 100 µM each time.

Turning to `Nc1ccn(C2OC(C(OC3OC(CO)C(O)C(N)C3O)C(O)C(O)C(O)C(O)CO)C(N)C(O)C2O)c(=O)n1` (stereo unspecified), the TGI in the assay on MDA-N is greater than 100 µM.

Take `CC(=O)c1c2c(cc3c1CC1(C3)Cc3cc4c(c(C(=O)O)c3C1)CCC4)CCC2` (stereo unspecified): the TGI in the assay on DMS 273 small cell lung, in the assay with M19-MEL melanoma, with LXFL 529 NSCLC, in the assay on SNB-78 CNS, in the assay on XF 498 CNS and in the assay on DLD-1 colon was greater than 100 µM each time.

For `COc1ccc2c(c1)c1c3n2CCNN=C3CCC1`, the TGI with RXF-631 renal is greater than 100 µM; with DMS 273 small cell lung, greater than 100 µM; in the assay on KM20L2 colon, greater than 100 µM; in the assay with M19-MEL melanoma, greater than 100 µM; in the assay on LXFL 529 NSCLC, greater than 100 µM; with SNB-78 CNS, greater than 94.3 µM. Moreover, the TGI in the assay on XF 498 CNS and in the assay with DLD-1 colon was greater than 100 µM in each case.

In the assay on MDA-N, `COc1cc(-c2cc(=O)c3c(O)c(OC)c(OC)c(OC)c3o2)cc(OC)c1OC` gave a TGI greater than 100 µM.

Consider `O=CCCCC(Sc1ccccc1)Sc1ccccc1`, for which the TGI in the assay on RXF-631 renal was 40 µM; with DMS 273 small cell lung, 33.9 µM; in the assay with KM20L2 colon, greater than 100 µM; in the assay on M19-MEL melanoma, 39.8 µM; in the assay on LXFL 529 NSCLC, 25.6 µM; with SNB-78 CNS it was 37.7 µM. Also, the TGI in the assay with XF 498 CNS was 42.6 µM; in the assay on DLD-1 colon it was 31.6 µM.

For `O=c1c2ccccc2nc(-c2ccccc2)n1NC(=S)Nc1cccc(Cl)c1`, the TGI with DMS 273 small cell lung, with M19-MEL melanoma, in the assay with LXFL 529 NSCLC and in the assay with DLD-1 colon was greater than 100 µM each time.

As for `Cc1ccc(S(=NS(=O)(=O)c2ccc(C)cc2)c2ccc(C)cc2)cc1`, the TGI in the assay with MDA-N was greater than 100 µM.

As for `O=C1C=Cc2ncccc2C1=O`, the TGI in the assay on RXF-631 renal was 39.5 µM; in the assay with DMS 273 small cell lung it was 30.9 µM; in the assay on KM20L2 colon it was greater than 63.2 µM; in the assay with LXFL 529 NSCLC, 30.2 µM; in the assay on SNB-78 CNS, greater than 66.5 µM; in the assay with XF 498 CNS, 39.3 µM. Further, the TGI in the assay on DLD-1 colon was 34.2 µM.

For `CC(=O)Nc1ccc(-c2nnc(SCC(=O)Nc3ccc(Cl)cc3)o2)cc1`, the TGI was 40.3 µM with DMS 273 small cell lung; 33.3 µM in the assay on KM20L2 colon; 45.4 µM with M19-MEL melanoma; 22.5 µM in the assay with LXFL 529 NSCLC; greater than 100 µM in the assay with SNB-78 CNS; 27.9 µM in the assay with DLD-1 colon.

Take `CC(=O)OC(=O)O/C=C\CCl`: the TGI in the assay on RXF-631 renal, in the assay with DMS 273 small cell lung, in the assay with KM20L2 colon, in the assay on M19-MEL melanoma, in the assay with LXFL 529 NSCLC and in the assay with SNB-78 CNS was greater than 100 µM in each case. Also, the TGI in the assay on DLD-1 colon was greater than 100 µM.

Take `CCOC(=O)CC(NC(=O)c1ccc(N=NN(C)C)cc1)C(=O)OCC` (stereo unspecified): the TGI in the assay on DMS 273 small cell lung, in the assay on M19-MEL melanoma, in the assay on LXFL 529 NSCLC and in the assay on DLD-1 colon was greater than 100 µM each time.

In the assay on MDA-N, `CC(C(N)=O)N(C)C(=O)c1cnc2ccccc2c1` (stereo unspecified) registered a TGI greater than 100 µM.

As for `N#C/C(=C\c1ccc2[nH]ccc2c1)C(=O)c1ccc(O)c(O)c1`, the TGI in the assay with DMS 273 small cell lung, with KM20L2 colon, with MDA-N, in the assay with M19-MEL melanoma, in the assay on LXFL 529 NSCLC and with SNB-78 CNS was greater than 100 µM in each case. Moreover, the TGI in the assay on DLD-1 colon was greater than 100 µM.

Consider `CNC(c1ccncc1)C(NC)c1ccncc1` (stereo unspecified), for which, in the assay with MDA-N, the TGI was greater than 100 µM.

Compound `CCCOC(=O)C1C2CCC(O2)C1C(=O)O` (stereo unspecified) registered a TGI with MDA-N greater than 100 µM.

As for `O=S1(=O)c2ccccc2N=C(c2ccccc2Cl)CC1c1ccc(F)cc1` (stereo unspecified), the TGI in the assay with DMS 273 small cell lung was found to be 45.3 µM; with KM20L2 colon it was 37.4 µM; in the assay with M19-MEL melanoma it was 31.5 µM; in the assay on LXFL 529 NSCLC, 31.6 µM; with SNB-78 CNS, 40.3 µM; in the assay on XF 498 CNS, 29 µM. Moreover, the TGI with DLD-1 colon came to 28.6 µM.

In the case of `Cn1nc(-c2ccccc2)c(C(=O)/C=C/c2ccc(Cl)cc2)c(N2CCCC2)c1=O`, the TGI stood at 50.5 µM in the assay with RXF-631 renal; 24.2 µM in the assay on DMS 273 small cell lung; 15.1 µM in the assay on KM20L2 colon; 23.2 µM with M19-MEL melanoma; 13 µM with LXFL 529 NSCLC; 28.3 µM in the assay on XF 498 CNS. In the assay on DLD-1 colon, this compound gave a TGI of 10.8 µM.

For `CCc1cc(Cc2ccc(C)c(NC(=O)C(=O)C3C(=O)NC(=O)NC3=O)c2CC)cc(C)c1NC(=O)C(=O)C1C(=O)NC(=O)NC1=O`, the TGI in the assay on RXF-631 renal, in the assay on DMS 273 small cell lung, in the assay on KM20L2 colon, in the assay with M19-MEL melanoma, in the assay with LXFL 529 NSCLC and in the assay on SNB-78 CNS was greater than 100 µM each time. Also, the TGI in the assay with DLD-1 colon was greater than 100 µM.

Values taken from PubChem BioAssay (NCI).
